Laboratory results published in patent publication US10618875B2 (priority 2017, dated 2020).
Structures can show the parent of a compound that is named as a salt.

What was measured:
NCI-60 cell lines = assay: cells; format: cell-based, human
[1] = in vivo
[2] = mouse, in vivo
[3] = tested on: Hep3B-luc human liver tumor; parameters: species or system BALB/c nude mice; conditions: mouse

Row | SMILES | delta of growth percent across all cell lines tested (NCI-60 cell lines) | range of growth percent across all cell lines (NCI-60 cell lines) | activity at 10 µM (NCI-60 cell lines; Homo sapiens, 48 h, read-out: mean growth percent of control across the NCI-60) | inhibition at 10 µM (NCI-60 cell lines; Homo sapiens, read-out: growth inhibition in any of the NCI-60 cell lines) | animals that died ([1]; male, C57BL/6, mouse) | LD50 ([1]; mouse, po) | blood creatinine [2] | BLI (in vivo bioluminescence) of Hep3B-luc tumor [3]
1 | O=[N+]([O-])c1ccc(O)c([N+](=O)[O-])c1 [DNP, 2,4-dinitrophenol] | 28.44% | 44.43% | 98.4% | < 50% | 50% | 100 mpk | raised blood creatinine | 
2 | CNC(=O)c1cc(Oc2ccc(NC(=O)Nc3ccc(Cl)c(C(F)(F)F)c3)cc2)ccn1 [Sorafenib, Sorafenib Tosylate] |  |  |  |  |  |  |  | showed a trend toward having an effects on decreasing BLI
